According to US4791215A, “Derivatives of glutamic acid and aspartic acid” (priority 1984, dated 1988):
Where “and” joins values, the source holds several entries; their conditions need not be identical. Equal values may be shown once.

Legend:
morphine analgesia = assay: Increase in analgesia of morphine, Tail Flick Test (Experiment 1); format: in vivo, rats; conditions: for percentage variation of latency of pain sensation / M (10-90) ± SE, mean percentage variation of latency: compound 10 mg/kg i.p. + morphine 2 mg/kg; for M (10-90) ± SE, mean percentage variation of latency: mean 10-90 min; for Power ratio with respect to morphine alone: rat, in vivo
Method in brief: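 Non-fasted male rats (150-200 g); a tail point is exposed to a 75 °C heat source and latency to tail movement recorded, 8 s cut-off. Readings taken before and 10, 20, 30, 45, 60 and 90 min after analgesic treatment; percentage variation calculated per animal.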

[1] = system: CCK-8 induced contraction of guinea pig gall bladder; assay: Anti-CCK activity on gall bladder strips in vitro; conditions: CCK-8 10 ng/ml
Method in brief: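 Longitudinal guinea pig gall bladder strips in Krebs at 32 °C, gassed with O2/CO2 95:5, were contracted with 10 ng/ml CCK-8. Isometric force was recorded across several compound concentrations, and ED50 was taken as the μg/ml concentration antagonising 50% of the CCK contraction.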

[2] = system: intestinal transit of carbon; assay: Anti-spastic activity, vegetable carbon intestinal transit test; format: in vivo, mice; conditions: Mus musculus, ip; read-out: antispastic activity ED50 (dose reducing intestinal transit of carbon by 50%)
Text: The anti-spastic activity which the present compounds exert on the entire digestive system is also notable. Measured in mice with the vegetable carbon test (rate of transit through the stomach and the intestine), this activity is illustrated in the following table.
claimed administered intraperitoneally in mice. Values
expressed as the ED 50 in mg/kg, that is the dose which
reduces the intestinal transit of carbon by 50%

[3] = system: CCK-8 induced contraction of guinea pig gall bladder; assay: Anti-CCK-8 activity on gall bladders in situ; format: in vivo; conditions: for percentage inhibition of contracting effect of CCK-8: single experiments
Procedure: In order to confirm the evidence of the studies in vitro several of the more interesting compounds were tested in vivo on guinea pig gall baldders in situ.
The method used is that described by Ljungberg (Svensk. Farm. Tidskr. 68, 351-354, 1964).
Guinea pigs having a weight of about 400 g, anaesthetised with urethane, were used; the substances under examination were administered intraveneously into the jugular vein.
The responses of the gall bladders to the substances under test were detected by means of a force transducer and recorded by means of a microdynamometer. The optimum contracting dose was chosen as 10 ng/kg of CCK-8. The antagonist compounds tested were administered in increasing doses so as to enable the calculation of an ED50 value, that is in the dose (in mg/kg i.v.) capable of inhibiting 50% of the contracting effect of 10 ng/kg i.v. of CCK-8.
The results obtained are given in Table 7 below, which gives the doses used and the effects obtained expressed as a percentage inhibition of the contracting effect of CCK-8 as well as the ED50 found.

biliary flow = assay: Biliary flow (choleretic activity); format: in vivo, rat
Procedure: The following experiment was carried out: a cannula was inserted in the bile duct of a rat anaesthetised with urethane, together with a small needle connected to a polythene tube, and the bile liquid was thus collected. The collection was carried out for one hour before the intravenous administration of the tested compounds and for a further two hours after administration, the samples collected at 30 minute intervals being weighed.
In order to prevent possible dehydration of the animals, 0.5 ml of physiological solution was administered at 30 minute intervals up to a total of 3 ml.

[4] = system: endogenous opiates analgesia; assay: Analgesic activity of endogenous opiates released by transcutaneous shock, Tail Flick Test (Experiment 3); format: in vivo, rats
Procedure: Experiment No. 3: Influence of several of the compounds of the invention on the analgesic activities of endogenous opiates released by transcutaneous shock in rats and measured by the Tail Flick Test
The method is that described by Lewis et al. J. Neurosc. 1, 358 […]. Male rats which have not fasted and have a weight of about 200 g are used.
The animals are stressed by the application of a 60 Hz-2.5 mA current to the front leg in pulses of a duration of 1 second every 5 seconds for 20 minutes.
This stress regime induces the release of endogenous opiates.

SMILES	percentage variation of latency of pain sensation (morphine analgesia; 10')	percentage variation of latency of pain sensation (morphine analgesia; 20')	percentage variation of latency of pain sensation (morphine analgesia; 30')	percentage variation of latency of pain sensation (morphine analgesia; 45')	percentage variation of latency of pain sensation (morphine analgesia; 60')	percentage variation of latency of pain sensation (morphine analgesia; 90')	M (10-90) ± SE, mean percentage variation of latency (morphine analgesia)	Power ratio with respect to morphine alone (morphine analgesia)	ED50 (concentration antagonising 50% of contracting effect of CCK-8) [1]	ED50 [2]	also measured
CCCCN(CCCC)C(=O)C(CCC(=O)O)NC(=O)c1ccc(I)cc1 (stereo not drawn) [Compound C-27]	52.3 ± 13.0%	81.4%	90.2 ± 7.0%	85.9 ± 10.0%	60.3 ± 15.0%	50.3 ± 13.0%	70.0 ± 17.8%	2.35	10.2 µg/mL	40.3 mg/kg	
CCCCCN(CCCCC)C(=O)C(CCC(=O)O)NC(=O)c1ccc(Cl)cc1 (stereo not drawn) [Compound C-4]	44.6 ± 5.3%	67.5 ± 13.4%	66.3 ± 14.0%	60.4 ± 16.3%	59.8 ± 17.0%	44.2 ± 14.8%	57.1%	1.92	1.1 µg/mL	38.8 mg/kg	percentage inhibition of contracting effect of CCK-8 ([3]; 0.03 mg/kg i.v.): -11.8%; percentage inhibition of contracting effect of CCK-8 ([3]; 1 mg/kg i.v.): -92.1% and -88.5%; ED50 ([3]; Cavia porcellus, iv, CCK-8 10 ng/kg i.v., read-out: ED50 (inhibition of 50% of contracting effect of CCK-8)): 0.3 mg/kg
CCCc1ccc(C(=O)NC(CCC(=O)O)C(=O)N(CCC)CCC)cc1 (stereo not drawn) [Compound C-35]	39.9 ± 15%	62.3 ± 23%	13.7%	63.2 ± 17%	61.3 ± 20%	28.8 ± 31%	44.9 ± 21%	1.51	367.1 µg/mL	181 mg/kg	% increase in biliary flow with respect to controls (biliary flow; 12.5 mg/kg i.v.): +9.6%; % increase in biliary flow with respect to controls (biliary flow; 25 mg/kg i.v.): +51.9%; % increase in biliary flow with respect to controls (biliary flow; 50 mg/kg i.v.): +91.9%; % increase in biliary flow with respect to controls (biliary flow; 100 mg/kg i.v.): +159.7%; ED50 (biliary flow; Rattus norvegicus, iv, average over 2 hours, read-out: ED50 (dose causing 50% increase in biliary flow)): 29.5 mg/kg
CCCN(CCC)C(=O)C(CCC(=O)O)NC(=O)c1ccc(CC)cc1 (stereo not drawn) [Compound C-34]	19.6 ± 23%	59 ± 17%	85.5 ± 10%	78.4 ± 16%	67 ± 20%	59.1%	60.6 ± 23%	2.03	40.1 µg/mL	65.5 mg/kg	average latency, Tail Flick ([4]; compound 1 mg/kg iv + stress, 5'): 5.40 ± 0.35 s; average latency, Tail Flick ([4]; compound 1 mg/kg iv + stress, 10'): 4.9 ± 0.25 s; average latency, Tail Flick ([4]; compound 1 mg/kg iv + stress, 15'): 3.4 ± 0.16 s; average latency, Tail Flick ([4]; compound 3 mg/kg iv + stress, 5'): 6.56 ± 0.33 s; average latency, Tail Flick ([4]; compound 3 mg/kg iv + stress, 10'): 5.58 ± 0.31 s; average latency, Tail Flick ([4]; compound 3 mg/kg iv + stress, 15'): 3.98 ± 0.32 s
